Patent US8258099B2, “Pin1-modulating compounds and methods of use thereof” (Max-Planck-Gesellschaft zur Foerderung der Wissenschaften …, priority 2004, dated 2012)
Square brackets hold non-standard residues; d marks the D form. Peptide text beside a SMILES is read from it. d(pT) = C[C@H](OP(=O)(O)O)[C@@H](N)C(=O)O; 2Nal = N[C@@H](Cc1ccc2ccccc2c1)C(=O)O; Pip = O=C(O)[C@@H]1CCCCN1

Assays:
hPin1 PPIase domain = molecular target: T1, hPin1 PPIase domain (Homo sapiens, UniProt Q13526); experiment: Isothermal titration calorimetry (ITC), isolated PPIase domain; assay type: binding
T1 construct: The hPin1 PPIase domain comprising of amino acid residues Gly45-Glu163 was amplified by PCR; made in house; host or cells: E. coli BL21(DE3) (pET28a)
T1 sequence (Q13526 45-163): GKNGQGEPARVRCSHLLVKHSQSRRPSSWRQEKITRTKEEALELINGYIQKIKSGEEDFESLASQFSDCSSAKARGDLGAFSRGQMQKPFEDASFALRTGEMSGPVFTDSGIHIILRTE
Description: Calorimetric experiments were performed using a VP-ITC titration calorimeter (MicroCal, Inc, Northampton, Mass.) at 10° C. All solutions were degassed under vacuum prior to use. Solutions of hPin1 and hPin1 PPIase domain were dialyzed against 10 mM Hepes (pH 7.8). The protein concentration in the sample cell was adjusted to 6.5 μM using the same batch of buffer. Protein concentrations were determined as described above. The volume of the protein solution in the sample cell was 1.4 ml. The injection syringe was filled with 300 μl solution of peptide 17 (see table III) (250 μM in the same batch of buffer as used for dialyses). Each titration experiment consisted of a single 1 μl injection followed by 16 identical injections of 5 μl solution of peptide 17.
(§1) The stability of peptides 15 and 17 in cytoplasmic extracts from HeLa cells was investigated using MALDI-TOF mass spectrometry and capillary electrophoresis, respectively. In the cytosolic incubation mixture, streptavidin sepharose beads served to isolate peptide 15 fragments after prolonged incubation. […] Therefore, phosphopeptides are useless for evaluating Pin1 functions in vivo unless dephosphorylation can be avoided.

[1] = Stability against cellular phosphatases and proteases in HeLa cell lysate; assay type: in vitro ADME
Description: FIG. 4 depicts the stability of peptide 17 against cellular phosphatases and proteases. Peptide 17 was incubated for 3 hours in HeLa cell lysate in the absence of phosphatase and protease inhibitors. The mixture was then analyzed by capillary electrophoresis (short dashed line). As controls, the untreated peptide 17 (solid line) and its nonphosphorylated derivative (dotted line) were used. The temperature of the capillary thermostating system was kept at 16° C. Separation buffer was 50 mM sodium phosphate, pH 7.0. Signals were detected at 220 nm.
Peptide 17 was incubated with HeLa cell lysate for 3 h and analyzed with capillary electrophoresis using UV detection at 220 nm on a P/ACE MDQ (Beckman Coulter, Palo Alto, Calif.) system. Fused-silica capillaries (Polymicro Technologies) of 40 cm length at an operation voltage of 20 kV were used. As references, untreated peptide 17 and its nonphosphorylated derivative were used. The samples were hydrodynamically injected with 3.45 kPa for 10 s. 50 mM sodium phosphate buffer (pH 7.0) was used as separation buffer. The system temperature was kept at 16° C.
as §1

[2] = molecular target: T2, interaction of MPM-2 antigens with GST-hPin1 (Homo sapiens, UniProt Q13526); experiment: MPM-2 competition assay; assay type: binding; details: mitotic HeLa cell lysate, 8 μM GST-hPin1
T2 construct: made in house
T2 sequence (Q13526 whole entry): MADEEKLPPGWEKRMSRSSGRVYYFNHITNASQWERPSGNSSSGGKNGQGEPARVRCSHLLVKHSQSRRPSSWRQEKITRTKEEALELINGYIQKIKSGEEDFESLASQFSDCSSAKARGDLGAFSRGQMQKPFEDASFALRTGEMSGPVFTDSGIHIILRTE
Description: FIG. 7 depicts the influence of peptide 17 on the interaction of MPM-2 antigens with hPin1. The indicated concentration of peptide 17 or its nonphosphorylated derivative (control) was incubated with an 8 μM solution of GST-hPin1. After addition of mitotic HeLa cell lysate, GST-hPin1 was extracted from the respective mixture using glutathione sepharose. Samples were analyzed regarding extracted GST-hPin1 and coprecipitated MPM-2 antigenes by SDS PAGE and western blot analysis. Untreated lysate of mitotic HeLa cells was loaded on the first line (extract). MPM-2 antigenes were detected using the monoclonal anti MPM-2 antibody (mouse). GST-hPin1 was detected using an anti hPin1 PPIase domain antiserum (rabbit). Horseradish peroxidase-conjugated antibodies from mouse or rabbit were used as secondary antibodies. […]
1.3 mM of Peptide 17 or its nonphosphorylated derivative were incubated with GST-hPin1 (8 μM) for 2 hours at 4° C. […] Following SDS-PAGE, the samples were analyzed by western blot analysis. GST-hPin1 and coextracted MPM-2 antigens were detected using an anti hPin1 PPIase domain antiserum (rabbit) or monoclonal anti MPM-2 antibody (Upstate Biotechnology) from mouse. […]
MPM-2 antigens are mitotic phosphoproteins that are specifically recognized by the monoclonal antibody MPM-2. […] The coextracted MPM-2 antigenes were detected after SDS PAGE by western blot analysis using the anti MPM-2 antibody. […]

In the case of `CC(=O)N[C@@H](Cc1ccccc1)C(=O)N[C@@H](C(=O)N1CCCC[C@H]1C(=O)N[C@@H](Cc1ccc2ccccc2c1)C(=O)N[C@@H](CCC(N)=O)C(N)=O)[C@H](C)OP(=O)(O)O` [Peptide 17, Ac-Phe-D-Thr(PO3H2)-Pip-Nal-Gln-NH2] (Ac-F[d(pT)][Pip][2Nal]Q-NH2), the “thermodynamic constants, isolated PPIase domain versus full-length hPin1” value (hPin1 PPIase domain) was “same thermodynamic constants”, the “stability against HeLa cell lysate” value ([1]; 3 hours of incubation, no phosphatase and protease inhibitors, capillary electrophoresis) was “complete stability” and the stability in cytosol ([1]; discussion statement (FIG. 4)) was “sufficiently stable”. The “influence on interaction of MPM-2 antigenes with GST-hPin1” value [2] was “did not influence”.
